Earlier results in patent publication US7998503B2, “Form of administration for controlling primary headaches” (LTS Lohmann Therapie-Systeme AG, priority 2003, dated 2011).

Conditions: nasally administered, literature report

Question: For `CCN(CC)CC(=O)Nc1c(C)cccc1C` [lidocaine], which “effect on migraine pain after nasal administration” value (e.g. sprays) is on record?
Answer: fast decline in migraine pain

Question: And the “renewed appearance of the pain after administration” value (shortly after administration)?
Answer: recurrence, meaning renewed appearance of the pain, was found shortly after administration
